The test has as its target T1, human KEAP1 (N-term, residues 321-609) (Homo sapiens, UniProt Q14145).
T1 construct: human KEAP1 (N-term, residues 321-609)
Nature of the test: KEAP1 Kelch Fluorescence Polarization (FP) Assay. It counts as binding. The note with it: inhibition of Kelch domain-NRF2 interaction; 2 nM FITC-labelled NRF2 peptide, 25 nM KEAP1, 1 h room temperature; compounds below 10 nM cannot be differentiated. How it is done: KEAP1 Kelch Fluorescence Polarization (FP) Assay Method
Inhibition of the Kelch domain-NRF2 interaction was determined using a fluorescence polarization-based competition assay in a black 384-well microplate. Compounds were tested at a starting concentration of 10 μM serially diluted 1:3 to generate a 12-point dose response curve on the Biomek FX robot. Each well contained 2 nM FITC-labelled NRF2 peptide (FITC-LDEETGEFL-NH2) and 25 nM human KEAP1 (N-term, residues 321-609) enzyme in a final volume of 20 μL of assay buffer (50 mM Tris-HCl pH 8.0, 100 mM NaCl, 5 mM MgCl2, 0.005% Tween-20, 0.005% BSA, 0.5% DMSO) in the presence of varying concentrations of test compound. Unlabelled peptide (LDEETGEFL-NH2) at 50 μM (negative control) and 0.5% DMSO (positive control) was used to determine the assay window.
After 1 h at room temperature, fluorescence polarization (excitation 470 nm/emission 530 nm) was measured using an Envision plate reader. IC50 values were determined by fitting the data to a four parameter logistic fit using XLfit or XE Runner within ActivityBase. The assay limit is such that compounds below 10 nM cannot be differentiated.
T1 sequence (Q14145 321-609): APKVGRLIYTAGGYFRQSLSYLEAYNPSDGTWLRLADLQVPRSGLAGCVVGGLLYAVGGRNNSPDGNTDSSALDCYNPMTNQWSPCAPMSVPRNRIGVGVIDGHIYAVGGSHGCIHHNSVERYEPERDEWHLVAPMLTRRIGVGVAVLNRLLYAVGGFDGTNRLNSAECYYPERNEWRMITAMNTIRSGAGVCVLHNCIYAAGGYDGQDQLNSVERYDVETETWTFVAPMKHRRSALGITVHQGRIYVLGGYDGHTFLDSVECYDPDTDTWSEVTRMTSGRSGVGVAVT
In the case of `CNC(=O)[C@H]1CCCC[C@H]1C(=O)N1CCc2cccc(OCc3cnccn3)c2[C@H]1CN1C(=O)c2ccccc2C1=O` [Example 27, (1S,2R)-2-((S)-1-((1,3-dioxoisoindolin-2-yl)methyl)-8-(pyrazin-2-ylmethoxy)-1,2,3,4-tetrahydroisoquinoline-2-carbonyl)-N-methylcyclohexane-1-carboxamide], the half-inhibitory concentration (IC50) (as a rule, the midpoint of a concentration-inhibition curve) came to 565 nM.

Compound `CNC(=O)N1CCCC[C@H]1C(=O)N1CCc2cccc(O[C@H]3CCN(C(=O)c4cncs4)C3)c2[C@H]1CN1C(=O)c2ccccc2C1=O` [Example 28, (S)-2-((S)-1-((1,3-dioxoisoindolin-2-yl)methyl)-8-(((S)-1-(thiazole-5-carbonyl)pyrrolidin-3-yl)oxy)-1,2,3,4-tetrahydroisoquinoline-2-carbonyl)-N-methylpiperidine-1-carboxamide] yielded an IC50 of 43 nM.

`CCCNC(=O)[C@H]1CCCC[C@H]1C(=O)N1CCc2cccc(O[C@H]3CCN(C(=O)c4cncs4)C3)c2[C@H]1CN1C(=O)c2ccccc2C1=O` [Example 29, (1S,2R)-2-((S)-1-((1,3-dioxoisoindolin-2-yl)methyl)-8-(((S)-1-(thiazole-5-carbonyl)pyrrolidin-3-yl)oxy)-1,2,3,4-tetrahydroisoquinoline-2-carbonyl)-N-propylcyclohexane-1-carboxamide] showed a concentration for half-maximal inhibition (IC50) of 166 nM.

`COCCNC(=O)[C@H]1CCCC[C@H]1C(=O)N1CCc2cccc(O[C@H]3CCN(C(=O)c4cncs4)C3)c2[C@H]1CN1C(=O)c2ccccc2C1=O` [Example 30, (1S,2R)-2-((S)-1-((1,3-dioxoisoindolin-2-yl)methyl)-8-(((S)-1-(thiazole-5-carbonyl)pyrrolidin-3-yl)oxy)-1,2,3,4-tetrahydroisoquinoline-2-carbonyl)-N-(2-methoxyethyl)cyclo-hexane-1-carboxamide] displayed an IC50 of 215 nM.

Regarding `O=C(NCC(F)F)[C@H]1CCCC[C@H]1C(=O)N1CCc2cccc(O[C@H]3CCN(C(=O)c4cncs4)C3)c2[C@H]1CN1C(=O)c2ccccc2C1=O` [Example 31, (1S,2R)-N-(2,2-difluoroethyl)-2-((S)-1-((1,3-dioxoisoindolin-2-yl)methyl)-8-(((S)-1-(thiazole-5-carbonyl)pyrrolidin-3-yl)oxy)-1,2,3,4-tetrahydroisoquinoline-2-carbonyl)cyclohexane-1-carboxamide], the IC50 stood at 539 nM.

Compound `O=C(NCC(F)(F)F)[C@H]1CCCC[C@H]1C(=O)N1CCc2cccc(O[C@H]3CCN(C(=O)c4cncs4)C3)c2[C@H]1CN1C(=O)c2ccccc2C1=O` [Example 32, (1S,2R)-2-((S)-1-((1,3-dioxoisoindolin-2-yl)methyl)-8-(((S)-1-(thiazole-5-carbonyl)pyrrolidin-3-yl)oxy)-1,2,3,4-tetrahydroisoquinoline-2-carbonyl)-N-(2,2,2-trifluoroethyl)cyclohexane-1-carboxamide] returned an IC50 of 2100 nM.

Regarding `N#CCNC(=O)[C@H]1CCCC[C@H]1C(=O)N1CCc2cccc(O[C@H]3CCN(C(=O)c4cncs4)C3)c2[C@H]1CN1C(=O)c2ccccc2C1=O` [Example 33, (1S,2R)-N-(cyanomethyl)-2-((S)-1-((1,3-dioxoisoindolin-2-yl)methyl)-8-(((S)-1-(thiazole-5-carbonyl)pyrrolidin-3-yl)oxy)-1,2,3,4-tetrahydroisoquinoline-2-carbonyl)cyclohexane-1-carboxamide], the midpoint of inhibition, the IC50, lay at 1510 nM.

In turn, `O=C(NCCO)[C@H]1CCCC[C@H]1C(=O)N1CCc2cccc(O[C@H]3CCN(C(=O)c4cncs4)C3)c2[C@H]1CN1C(=O)c2ccccc2C1=O` [Example 35, (1S,2R)-2-((S)-1-((1,3-dioxoisoindolin-2-yl)methyl)-8-(((S)-1-(thiazole-5-carbonyl)pyrrolidin-3-yl)oxy)-1,2,3,4-tetrahydroisoquinoline-2-carbonyl)-N-(2-hydroxyethyl)cyclohexane-1-carboxamide] displayed an IC50 of 185 nM.

For the origin of these results see patent publication US20230159511A1, “TETRAHYDROISOQUINOLINE COMPOUNDS AS NRF2 ACTIVATORS” (C4X Discovery Limited, priority 2020, published 2023).
